pIC50: −log10 of the molar value. Each block holds one molecule with its values, some of them ahead of it.
Test system: 945468-187-T-J2-PDC spheroids viability
Experiment: Anticancer human tumor 945468-187-T-J2-PDC patient-derived rectal carcinoma cell line growth inhibition [PI3K]
Conditions: spheroids with HUVEC and MSC; for viability, T/C: stronger effect = lower value
Method in brief: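 Tumor cells were combined with HUVEC and MSCs into spheroids, then dosed with PI3K-inhibitor combinations over half-log ranges capped near clinical Cmax or 10 microM.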

[1] = curve of first compound, second compound 0.00316 µM
[2] = curve of first compound, second compound 0.01 µM
[3] = curve of first compound, second compound 0.0316 µM
[4] = curve of first compound, second compound 0.1 µM
[5] = curve of first compound, second compound 0.316 µM
[6] = curve of first compound, second compound 1 µM
[7] = second compound 0.00316 µM, first compound 0.0316 µM
[8] = second compound 0.00316 µM, first compound 0.1 µM
[9] = second compound 0.00316 µM, first compound 0.316 µM
[10] = second compound 0.00316 µM, first compound 1 µM
[11] = second compound 0.00316 µM, first compound 3.16 µM
[12] = second compound 0.00316 µM, first compound 10 µM
[13] = second compound 0.01 µM, first compound 0.0316 µM
[14] = second compound 0.01 µM, first compound 0.1 µM
[15] = second compound 0.01 µM, first compound 0.316 µM
[16] = second compound 0.01 µM, first compound 1 µM
[17] = second compound 0.01 µM, first compound 3.16 µM
[18] = second compound 0.01 µM, first compound 10 µM
[19] = second compound 0.0316 µM, first compound 0.0316 µM
[20] = second compound 0.0316 µM, first compound 0.1 µM
[21] = second compound 0.0316 µM, first compound 0.316 µM
[22] = second compound 0.0316 µM, first compound 1 µM
[23] = second compound 0.0316 µM, first compound 3.16 µM
[24] = second compound 0.0316 µM, first compound 10 µM
[25] = second compound 0.1 µM, first compound 0.0316 µM
[26] = second compound 0.1 µM, first compound 0.1 µM
[27] = second compound 0.1 µM, first compound 0.316 µM
[28] = second compound 0.1 µM, first compound 1 µM
[29] = second compound 0.1 µM, first compound 3.16 µM
[30] = second compound 0.1 µM, first compound 10 µM
[31] = second compound 0.316 µM, first compound 0.0316 µM
[32] = second compound 0.316 µM, first compound 0.1 µM
[33] = second compound 0.316 µM, first compound 0.316 µM
[34] = second compound 0.316 µM, first compound 1 µM
[35] = second compound 0.316 µM, first compound 3.16 µM
[36] = second compound 0.316 µM, first compound 10 µM
[37] = second compound 1 µM, first compound 0.0316 µM
[38] = second compound 1 µM, first compound 0.1 µM
[39] = second compound 1 µM, first compound 0.316 µM
[40] = second compound 1 µM, first compound 1 µM
[41] = second compound 1 µM, first compound 3.16 µM
[42] = second compound 1 µM, first compound 10 µM
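Note: spheroids exposed to compounds for seven days before reading.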

pIC50 [1]: < 5.00
pIC50 [2]: < 5.00
pIC50 [3]: 5.34
pIC50 [4]: 5.58
pIC50 [5]: > 7.50
pIC50 [6]: > 7.50
SMILES: Cn1ncc(Cl)c1-c1cc(C(=O)NC(CN)Cc2cccc(F)c2)sc1Cl (stereo not given) + COc1c(OCCCN2CCOCC2)ccc2c3n(c(=NC(=O)c4cnc(N)nc4)nc12)CCN3
viability, T/C [7]: 109%
viability, T/C [8]: 75.3%
viability, T/C [9]: 98.3%
viability, T/C [10]: 110%
viability, T/C [11]: 76.8%
viability, T/C [12]: 50.6%
viability, T/C [13]: 109%
viability, T/C [14]: 102%
viability, T/C [15]: 90.5%
viability, T/C [16]: 86.6%
viability, T/C [17]: 77.2%
viability, T/C [18]: 53.3%
viability, T/C [19]: 87.3%
viability, T/C [20]: 82.5%
viability, T/C [21]: 82.4%
viability, T/C [22]: 68.9%
viability, T/C [23]: 54.3%
viability, T/C [24]: 41.4%
viability, T/C [25]: 65.6%
viability, T/C [26]: 84.9%
viability, T/C [27]: 75.2%
viability, T/C [28]: 73%
viability, T/C [29]: 46%
viability, T/C [30]: 32.2%
viability, T/C [31]: 38.8%
viability, T/C [32]: 34.8%
viability, T/C [33]: 35.4%
viability, T/C [34]: 28.8%
viability, T/C [35]: 32.2%
viability, T/C [36]: 26.1%
viability, T/C [37]: 18.5%
viability, T/C [38]: 18.8%
viability, T/C [39]: 18.2%
viability, T/C [40]: 19.6%
viability, T/C [41]: 18.4%
viability, T/C [42]: 14.2%

pIC50 (curve of compound): < 7.00
SMILES: CC(C)n1nc(-c2ccc3oc(N)nc3c2)c2c(N)ncnc21
viability, T/C (compound 0.001 µM): 92.3% [middle of 4 runs]
viability, T/C (compound 0.0316 µM): 94.4% [middle of 4 runs]
viability, T/C (compound 0.1 µM): 71.9% [middle of 4 runs]

pIC50 [1]: < 7.00
pIC50 [2]: < 7.00
pIC50 [3]: < 7.00
pIC50 [4]: < 7.00
pIC50 [5]: < 7.00
pIC50 [6]: < 7.00
SMILES: CC(=O)c1c(C)c2cnc(Nc3ccc(N4CCNCC4)cn3)nc2n(C2CCCC2)c1=O + CC(Nc1ccc2c(c1)OCCn1cc(N3C(=O)OCC3C(F)F)nc1-2)C(N)=O
viability, T/C (second compound 0.00316 µM, first compound 0.000316 µM): 91.5%
viability, T/C (second compound 0.00316 µM, first compound 0.001 µM): 98.4%
viability, T/C (second compound 0.00316 µM, first compound 0.00316 µM): 73.9%
viability, T/C (second compound 0.00316 µM, first compound 0.01 µM): 114%
viability, T/C [7]: 129%
viability, T/C [8]: 128%
viability, T/C (second compound 0.01 µM, first compound 0.000316 µM): 73.9%
viability, T/C (second compound 0.01 µM, first compound 0.001 µM): 109%
viability, T/C (second compound 0.01 µM, first compound 0.00316 µM): 127%
viability, T/C (second compound 0.01 µM, first compound 0.01 µM): 83.5%
viability, T/C [13]: 92.8%
viability, T/C [14]: 114%
viability, T/C (second compound 0.0316 µM, first compound 0.000316 µM): 91%
viability, T/C (second compound 0.0316 µM, first compound 0.001 µM): 101%
viability, T/C (second compound 0.0316 µM, first compound 0.00316 µM): 101%
viability, T/C (second compound 0.0316 µM, first compound 0.01 µM): 87.3%
viability, T/C [19]: 86.2%
viability, T/C [20]: 105%
viability, T/C (second compound 0.1 µM, first compound 0.000316 µM): 92.5%
viability, T/C (second compound 0.1 µM, first compound 0.001 µM): 144%
viability, T/C (second compound 0.1 µM, first compound 0.00316 µM): 84.2%
viability, T/C (second compound 0.1 µM, first compound 0.01 µM): 101%
viability, T/C [25]: 107%
viability, T/C [26]: 100%
viability, T/C (second compound 0.316 µM, first compound 0.000316 µM): 81.3%
viability, T/C (second compound 0.316 µM, first compound 0.001 µM): 87%
viability, T/C (second compound 0.316 µM, first compound 0.00316 µM): 79%
viability, T/C (second compound 0.316 µM, first compound 0.01 µM): 78.1%
viability, T/C [31]: 85.3%
viability, T/C [32]: 73.1%
viability, T/C (second compound 1 µM, first compound 0.000316 µM): 90.3%
viability, T/C (second compound 1 µM, first compound 0.001 µM): 74.5%
viability, T/C (second compound 1 µM, first compound 0.00316 µM): 70.8%
viability, T/C (second compound 1 µM, first compound 0.01 µM): 72%
viability, T/C [37]: 71.2%
viability, T/C [38]: 81.4%

pIC50 [1]: < 5.00
pIC50 [2]: < 5.00
pIC50 [3]: < 5.00
pIC50 [4]: < 5.00
pIC50 [5]: < 5.00
pIC50 [6]: < 5.00
SMILES: C[C@@H](NC(=O)c1ncnc(N)c1Cl)c1ncc(C(=O)Nc2cc(C(F)(F)F)c(Cl)cn2)s1 + CC(Nc1ccc2c(c1)OCCn1cc(N3C(=O)OCC3C(F)F)nc1-2)C(N)=O
viability, T/C [7]: 94.6%
viability, T/C [8]: 117%
viability, T/C [9]: 127%
viability, T/C [10]: 75.7%
viability, T/C [11]: 136%
viability, T/C [12]: 96.7%
viability, T/C [13]: 99.2%
viability, T/C [14]: 71.4%
viability, T/C [15]: 115%
viability, T/C [16]: 87.5%
viability, T/C [17]: 98.3%
viability, T/C [18]: 108%
viability, T/C [19]: 84.9%
viability, T/C [20]: 104%
viability, T/C [21]: 115%
viability, T/C [22]: 103%
viability, T/C [23]: 112%
viability, T/C [24]: 90.3%
viability, T/C [25]: 105%
viability, T/C [26]: 112%
viability, T/C [27]: 104%
viability, T/C [28]: 96.8%
viability, T/C [29]: 97.7%
viability, T/C [30]: 93%
viability, T/C [31]: 72.5%
viability, T/C [32]: 103%
viability, T/C [33]: 105%
viability, T/C [34]: 88.2%
viability, T/C [35]: 86.7%
viability, T/C [36]: 97.2%
viability, T/C [37]: 68.7%
viability, T/C [38]: 73.4%
viability, T/C [39]: 67.5%
viability, T/C [40]: 79.3%
viability, T/C [41]: 94.4%
viability, T/C [42]: 83.9%
